Test results reported in patent US20180353445A1, “METHODS AND COMPOSITIONS RELATING TO PROTEASOME INHIBITOR RESISTANCE” (Whitehead Institute for Biomedical Research, priority 2017, published 2018).
“Also recorded” adds a separate entry of the source.

Key:
HepG2 cells = experiment: Cell viability assay (resazurin), HepG2 cells with shRNA knockdown of proteasome subunits vs control; assay type: cell-based, human
Text: FIGS. 2A-2F: Reducing expression of 19S subunits increases the levels of active 20S proteasomes and protects cancer cells from proteasome (FIG. 2A) HepG2 cells were infected with 80 shRNAs targeting 20 different subunits of the proteasome and 10 control shRNAs. Infected cells were then exposed to […] bortezomib and cell number was examined 4 days later. The plot represents the average (+/−SEM) of four different hairpins targeting the indicated proteasome subunits and their relative cell number following bortezomib treatment. 19S subunits are depicted with orange bars, the control with a blue bar and 20S subunits with green bars. […] (FIG. 2C) The relative cell number of cells harboring a control shLacZ or each of 4 individual shRNAs targeting shPSMD2 was analyzed 4 days after addition of the indicated concentrations of bortezomib. (FIG. 2D) HepG2 cells stably expressing four different shRNAs targeting the PSMD2 subunit and a control shRNA (lacZ) were analyzed by western blot for the indicated proteins 24 hours with or without bortezomib treatment. […] Proteasome complex levels were detected by immunoblot analysis and 20S proteasome activity by measuring the hydrolysis of Suc-LLVY-AMC by substrate overlay assays. * p<0.05 **p<0.01. […]

[1] = tested on: MCF7, HEK293 and T47D cells; experiment: Viability of cells grown in glucose (glycolytic) vs galactose (Hi-OXPHOS); assay type: cell-based, human
Procedure: FIGS. 40A-40D: Cancer cell metabolism alters sensitivity to elesclomol.
FIGS. 41A-41B: Cancer cell metabolism alters sensitivity to elesclomol.
FIGS. 51A-51D: Elesclomol preferentially targets cells in the Hi-OXPHOS state. […] The relative cell growth (color coded) was analyzed 72 hours post compound addition. Plotted are the mean SD of at least three replicas and the calculated EC50s (FIGS. 51B-51C). […] Reactive groups are indicated with a colored circle.
FIGS. 57A-57C: Elesclomol preferentially targets cells in the Hi-OXPHOS state. […] Analogs named compound 1-6. […] Plotted are the mean SD of at least three replicas and the calculated EC50s (FIG. 57A and FIG. 57C).

FDX1 = molecular target: T1, FDX1 (Homo sapiens, UniProt P10109); experiment: In vitro Fe-S cluster assembly assay with reduced FDX1; assay type: biochemical; settings: reduced FDX1 as reductant; 5x and 10x stoichiometry relative to ISCU and FDX1
T1 construct: made in house
T1 sequence (P10109 62-184): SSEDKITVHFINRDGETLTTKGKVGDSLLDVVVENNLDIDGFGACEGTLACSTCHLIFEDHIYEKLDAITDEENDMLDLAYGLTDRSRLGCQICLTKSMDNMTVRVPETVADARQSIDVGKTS
Text: Whether elesclomol can inhibit the functional activity of FDX1 in mediating the Fe—S cluster formation was also examined. […] (FIG. 47A) A “x5 concentration” as shown in FIGS. 47A-47C means that elesclomol (or isoform) was present at 5 times the concentration of the enzyme. The assay used in FIGS. 47A-47C is described in the paper Cai et al., Biochemistry, 2017, 56 (3), pp 487-499.
Fe—S clusters are generated from sulfur extracted from cysteine by the iron sulfur-cluster (ISC) core complex (NFS1-ISD11-Acp-ISCU)2 and iron. A reductant (FDX1 or FDX2) is required for Fc-S cluster biosynthesis (Lill and Muhlenhoff, 2006; Py and Barras, 2010) (FIG. 53A). […]
Protein Expression and Purification—Unlabeled samples of ISCU, unlabeled (NFS1-ISD11-Acp)2 (abbreviated as SDA), unlabeled and [U-^15N]-FDX1 (truncated first 61 amino acids) and unlabeled FDX2 were produced and purified as described previously (Cai et al., 2013; Cai et al., 2017a; Cai et al., 20176). […] The reduction of FDX1 or FDX2 was monitored by the color change from dark brown to light pink and by recording IN/vis spectra before and after reduction. […]
In vitro Fe—S cluster assembly assay—The in vitro Fe—S cluster assembly assays were carried out as follows. […] The growth of absorbance at 456 nm was used to monitor the assembly of [2Fe-2S] clusters.

Row | Compound | proliferation of control cells (HepG2 cells; 12 nM, control HepG2 cells) | increase of EC50 values in cell lines with shRNA-reduced PSMD2 vs parental line (HepG2 cells; HepG2, four shRNAs targeting PSMD2, 4 days) | activity against cells in the HI-OXPHOS state [1] | toxicity when grown in the presence of Galactose [1] | sensitivity of cells utilizing mitochondria metabolism vs glycolytic cells ([1]; MCF7 and HEK293 cells) | inhibition of in vitro Fe-S cluster assembly (FDX1)
1 | CC(C)C[C@H](NC(=O)[C@H](Cc1ccccc1)NC(=O)c1cnccn1)B(O)O [bortezomib] | completely inhibited | three to six-fold |  |  |  | 
2 | CN(NC(=O)CC(=O)NN(C)C(=S)c1ccccc1)C(=S)c1ccccc1 [elesclomol] |  |  | preferential activity | toxicity is enhanced | much more sensitive | sufficient to induce an inhibitory effect; also recorded: progressively inhibited
